Measured values published in patent US10221172B2, “Benzothiazole and benzisothiazole-substituted compounds as mGluR4 allosteric potentiators, compositions, and methods of treating neurological dysfunction” (Vanderbilt University, priority 2015, dated 2019).
pEC50: −log10 of the molar value.

Biological target: human mGluR4 (Homo sapiens (Human), UniProt Q14833)
Assay: mGluR4 potentiation assay, CHO cells transfected with human mGluR4, Ca2+-sensitive dye, EC20 agonist
Type: cell-based
Settings: potentiation of mGluR4
Experimental: The disclosed compounds and compositions can be evaluated for their ability to act as a potentiator of metabotropic glutamate receptor activity, in particular mGluR4 activity, by any suitable known methodology known in the art. For example, Chinese Hamster Ovary (CHO) cells transfected with human mGluR4 or HEK cells co-transfected with rat mGluR4 and the G-protein regulated Inwardly Rectifying Potassium channel (GIRK) were plated in clear bottom assay plates for assay in a Hamamatsu FDSS Fluorometric Plate Reader. The cells were loaded with either a Ca2+-sensitive fluorescent dye or the thallium responsive dye and the plates were washed and placed into a suitable kinetic plate reader. For human mGluR4 assays, a fluorescence baseline was established for 3-5 seconds, the disclosed compounds were then added to the cells, and the response in cells was measured. Approximately two and a half minutes later, a concentration of mGluR4 orthosteric agonist (e.g. glutamate or L-AP4) eliciting approximately 20% (EC20) of the maximal agonist response was added to the cells, and the response was measured. Two minutes later, a concentration of mGluR4 agonist (e.g. glutamate or L-AP4) eliciting 80% (EC80) of the maximal agonist response was added to the cells, and the response was measured. For rat mGluR4/GIRK experiments, a baseline was established for approximately five seconds, disclosed compounds were added, and either an EC20 or EC80 concentration of agonist was added approximately two and one half minutes later. Potentiation of the agonist response of mGluR4 by the disclosed compounds was observed as an increase in response to the EC20 concentration of agonist in the presence of compound compared to the response to agonist in the absence of compound. Similarly, antagonism of the agonist response of mGluR4 by the disclosed compounds was observed as a decrease in response to the EC80 concentration of agonist in the presence of compound compared to the response to agonist in the absence of compound.
The above described assay operated in two modes. In the first mode, a range of concentrations of the disclosed compounds are added to cells, followed by a single fixed concentration of agonist. If the compound acts as a potentiatior, an EC50 value for potentiation and a maximum extent of potentiation by the compound at this concentration of agonist is determined by non-linear curve fitting. If the compound acts as a noncompetitive antagonist, an IC50 value is determined by non-linear curve fitting. In the second mode, several fixed concentrations of the disclosed compounds are added to various wells on a plate, followed by a range in concentrations of agonist for each concentration of disclosed compound. The EC50 values for the agonist at each concentration of compound are determined by non-linear curve fitting. A decrease in the EC50 value of the agonist with increasing concentrations of the sample compound (a leftward shift of the agonist concentration-response curve) is an indication of the degree of mGluR4 potentiation at a given concentration of the sample compound. A decrease in the maximal response of the agonist with increasing concentrations of the sample compounds, with or without a rightward shift in agonist potency, is an indication of the degree of noncompetitive antagonism at mGluR4. The second mode also indicates whether the sample compounds also affect the maximum response to mGluR4 to agonists.

[1] = main compound table, species not given
[2] = summary list repeated at the end of the table, species not stated

Sequence of human mGluR4 (Q14833 33-912): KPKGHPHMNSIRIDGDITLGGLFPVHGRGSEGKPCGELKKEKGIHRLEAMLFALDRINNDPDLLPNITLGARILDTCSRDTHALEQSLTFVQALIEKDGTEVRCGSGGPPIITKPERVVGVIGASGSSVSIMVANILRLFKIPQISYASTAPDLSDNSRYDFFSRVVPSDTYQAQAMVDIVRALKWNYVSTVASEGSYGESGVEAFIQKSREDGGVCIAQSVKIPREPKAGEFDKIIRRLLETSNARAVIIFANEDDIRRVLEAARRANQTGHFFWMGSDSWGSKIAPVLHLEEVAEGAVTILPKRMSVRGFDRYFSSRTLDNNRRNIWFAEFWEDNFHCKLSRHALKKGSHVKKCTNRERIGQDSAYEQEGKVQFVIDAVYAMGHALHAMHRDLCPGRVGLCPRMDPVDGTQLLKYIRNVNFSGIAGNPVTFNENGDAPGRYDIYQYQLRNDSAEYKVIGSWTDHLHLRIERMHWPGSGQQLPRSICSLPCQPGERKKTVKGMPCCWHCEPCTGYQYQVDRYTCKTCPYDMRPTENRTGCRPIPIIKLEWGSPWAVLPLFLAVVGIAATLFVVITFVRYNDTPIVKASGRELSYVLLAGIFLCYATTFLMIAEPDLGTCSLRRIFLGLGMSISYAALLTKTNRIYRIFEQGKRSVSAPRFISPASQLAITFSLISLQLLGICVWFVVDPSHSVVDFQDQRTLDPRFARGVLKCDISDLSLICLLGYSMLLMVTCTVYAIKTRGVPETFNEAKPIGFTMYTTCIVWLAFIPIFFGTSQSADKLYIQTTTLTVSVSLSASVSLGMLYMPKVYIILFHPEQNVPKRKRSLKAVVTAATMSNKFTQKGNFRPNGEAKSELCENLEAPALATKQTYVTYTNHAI

Work on `c1ccc(-c2nsc3cc(Nc4n[nH]c5ncccc45)ccc23)cc1` [Example 44, 3-phenyl-N-(1H-pyrazolo [3,4-b]pyridin-3-yl)benzo[d]isothiazol-6-amine] yielded a pEC50 [1] of 5.69 and a pEC50 [2] of 5.69.
With `C[C@H]1CN(Cc2nsc3cc(Nc4n[nH]c5cccnc45)cnc23)CCO1` [Example 59, (S)-3-((2-methylmorpholino)methyl)-N-(1H-pyrazolo[4,3-b]pyridin-3-yl)isothiazolo[4,5-b] pyridin-6-amine] the pEC50 [1] was 6.45 and the pEC50 [2] was 6.45.
For `CC(=O)N1CCC(c2nsc3cc(Nc4n[nH]c5ncccc45)ccc23)CC1` [Example 64, 1-(4-(6-((1H-pyrazolo[3,4-b]pyridin-3-yl)amino)benzo[d]isothiazol-3-yl)piperidin-1-yl)ethan-1-one], the pEC50 [1] was 6.39 and the pEC50 [2] was 6.39.
`O=C(NC1CC(F)(F)C1)c1nsc2cc(Nc3n[nH]c4nccnc34)ccc12` [Example 30, 6-((1H-pyrazolo[3,4-b]pyrazin-3-yl)amino)-N-(3,3-difluorocyclobutyl) benzo[d] isothiazole-3-carboxamide] was tested, and the pEC50 [1] was 7.37 and the pEC50 [2] was 7.37.
In the case of `FC1CCN(Cc2nsc3cc(Nc4n[nH]c5cccnc45)cnc23)CC1` [Example 51, 3-((4-fluoropiperidin-1-yl)methyl)-N-(1H-pyrazolo[4,3-b]pyridin-3-yl)isothiazolo[4,5-b] pyridin-6-amine], the pEC50 [1] was 6.61 and the pEC50 [2] was 6.61.
For `O=C(c1nsc2cc(Nc3n[nH]c4cccnc34)ccc12)N1CCCC1` [Example 10, (6-((1H-pyrazolo [4,3-b]pyridin-3-yl)amino)benzo[d]isothiazol-3-yl) (pyrrolidin-1-yl) methanone], the pEC50 [1] was 5.87 and the pEC50 [2] was 5.87.
For `O=C(c1nsc2cc(Nc3n[nH]c4cccnc34)ccc12)N1CCCC1c1ccccn1` (stereo not shown) [Example 11, (6-((1H-pyrazolo [4,3-b]pyridin-3-yl)amino)benzo[d]isothiazol-3-yl)(2-(pyridin-2-yl)pyrrolidin-1-yl) methanone], the pEC50 [1] was under 5.00 and the pEC50 [2] was under 5.00.
In the case of `FC1(F)CCN(Cc2nsc3cc(Nc4n[nH]c5cccnc45)cnc23)CC1` [Example 50, 3-((4,4-difluoropiperidin-1-yl)methyl)-N-(1H-pyrazolo[4,3-b]pyridin-3-yl) isothiazolo[4,5-b]pyridin-6-amine], the pEC50 [1] was 7.09 and the pEC50 [2] was 7.09.
`O=C(C1CC1)N1CCC(c2nsc3cc(Nc4n[nH]c5cccnc45)ccc23)CC1` [Example 71, (4-(6-((1H-pyrazolo [4,3-b]pyridin-3-yl)amino)benzo[d]isothiazol-3-yl)piperidin-1-yl) (cyclopropyl) methanone] was tested, and the pEC50 [1] was 6.41 and the pEC50 [2] was 6.41.
Work on `CC1(C)CN(Cc2nsc3cc(Nc4n[nH]c5cccnc45)cnc23)CCO1` [Example 60] yielded a pEC50 [1] of 6.83 and a pEC50 [2] of 6.83.
With `O=C(c1nsc2cc(Nc3n[nH]c4cccnc34)ccc12)N1CCC(F)CC1` [Example 20, (6-((1H-pyrazolo [4,3-b]pyridin-3-yl)amino)benzo [d]isothiazol-3-yl) (4-fluoropiperidin-1-yl)methanone] the pEC50 [1] was 6.60 and the pEC50 [2] was 6.60.
`CC(C)(C)C1CCN(Cc2nsc3cc(Nc4n[nH]c5ncccc45)cnc23)CC1` [Example 57, 3-((4-(tert-butyl)piperidin-1-yl)methyl)-N-(1H-pyrazolo[3,4-b]pyridin-3-yl)isothiazolo[4,5-b] pyridin-6-amine] showed a pEC50 [1] of 5.38 and a pEC50 [2] of 5.38.
Work on `O=C(c1nsc2cc(Nc3n[nH]c4cccnc34)ccc12)N1CCN2CCCC2C1` (stereo not shown) [Example 13, (6-((1H-pyrazolo [4,3-b]pyridin-3-yl)amino)benzo[d]isothiazol-3-yl)(hexahydropyrrolo [1,2-a]pyrazin-2(1H)-yl)methanone] yielded a pEC50 [1] of 5.79 and a pEC50 [2] of 5.79.
Work on `CCCc1nsc2cc(Nc3n[nH]c4cccnc34)ccc12` [Example 23, 3-propyl-N-(1H-pyrazolo [4,3-b]pyridin-3-yl)benzo[d]isothiazol-6-amine] yielded a pEC50 [1] of 7.25 and a pEC50 [2] of 7.25.
Work on `c1cnc2c(Nc3cnc4c(CN5CCCC5)nsc4c3)n[nH]c2c1` [Example 58, N-(1H-pyrazolo[4,3-b]pyridin-3-yl)-3-(pyrrolidin-1-ylmethyl) isothiazolo [4,5-b]pyridin-6-amine] yielded a pEC50 [1] of 5.43 and a pEC50 [2] of 5.43.
`O=C(c1nsc2cc(Nc3n[nH]c4cccnc34)ccc12)N1CCSCC1` [Example 16, (6-((1H-pyrazolo [4,3-b]pyridin-3-yl)amino)benzo[d]isothiazol-3-yl)(thiomorpholino) methanone] gave a pEC50 [1] of 7.07 and a pEC50 [2] of 7.07.
For `CC1CC(C)CN(C(=O)c2nsc3cc(Nc4n[nH]c5cccnc45)ccc23)C1` (stereo not shown) [Example 18, (6-((1H-pyrazolo [4,3-b]pyridin-3-yl)amino)benzo[d]isothiazol-3-yl)(3,5-dimethylpiperidin-1-yl) methanone], the pEC50 [1] was 6.29 and the pEC50 [2] was 6.29.
In the case of `CC1CN(C(=O)c2nsc3cc(Nc4n[nH]c5cccnc45)ccc23)CC(C)O1` (stereo not shown) [Example 7, (6-((1H-pyrazolo [4,3-b]pyridin-3-yl)amino)benzo[d]isothiazol-3-yl) (2,6-dimethyl-morpholino) methanone], the pEC50 [1] was 6.51 and the pEC50 [2] was 6.51.
Work on `O=C(c1nsc2cc(Nc3n[nH]c4cccnc34)ccc12)N1CCCC(F)(F)C1` [Example 9, (6-((1H-pyrazolo [4,3-b]pyridin-3-yl)amino)benzo[d]isothiazol-3-yl) (3,3-difluoropiperidin-1-yl)methanone] yielded a pEC50 [1] of 6.63 and a pEC50 [2] of 6.63.
Molecule `CN(C(=O)c1nsc2cc(Nc3n[nH]c4cccnc34)ccc12)C1CC(F)(F)C1` [Example 15, 6-((1H-pyrazolo[4,3-b]pyridin-3-yl)amino)-N-(3,3-difluorocyclobutyl)-N-methylbenzo[d] isothiazole-3-carboxamide] has a pEC50 [1] of 6.79 and a pEC50 [2] of 6.79.
In the case of `CN1CCN(C(=O)c2nsc3cc(Nc4n[nH]c5cccnc45)ccc23)CC1` [Example 12, (6-((1H-pyrazolo [4,3-b]pyridin-3-yl)amino)benzo[d]isothiazol-3-yl)(4-methylpiperazin-1-yl) methanone], the pEC50 [1] was 5.94 and the pEC50 [2] was 5.94.
In the case of `CC(C)(C)Cc1nsc2cc(Nc3n[nH]c4ncccc34)ccc12` [Example 22, 3-neopentyl-N-(1H-pyrazolo[3,4-b]pyridin-3-yl)benzo[d] isothiazol-6-amine], the pEC50 [1] was 6.05 and the pEC50 [2] was 6.05.
With `c1cnc2c(Nc3ccc4c(C5CC5)nsc4c3)n[nH]c2c1` [Example 36, 3-cyclopropyl-N-(1H-pyrazolo [4,3-b]pyridin-3-yl) benzo[d]isothiazol-6-amine] the pEC50 [1] was 7.11 and the pEC50 [2] was 7.11.
In the case of `CC(C)(C)Cc1nsc2cc(Nc3n[nH]c4nccnc34)cnc12` [Example 27, 3-neopentyl-N-(1H-pyrazolo[3,4-b]pyrazin-3-yl) isothiazole[4,5-b] pyridin-6-amine], the pEC50 [1] was 7.00 and the pEC50 [2] was 7.00.
`O=C(c1nsc2cc(Nc3n[nH]c4cccnc34)ccc12)N1CCC(F)(F)C1` [Example 3, (6-((1H-pyrazolo [4,3-b]pyridin-3-yl)amino)benzo[d]isothiazol-3-yl) (3,3-difluoropyrrolidin-1-yl) methanone] showed a pEC50 [1] of 6.49 and a pEC50 [2] of 6.49.
`c1cnc2[nH]nc(Nc3cnc4c(CN5CCCCC5)nsc4c3)c2c1` [Example 49, 3-(piperidin-1-ylmethyl)-N-(1H-pyrazolo[3,4-b]pyridin-3-yl)isothiazolo[4,5-b] pyridin-6-amine] showed a pEC50 [1] of 5.81 and a pEC50 [2] of 5.81.
